Measurements taken from patent US20080227768A1, “Crystal of 1-Methylcarbapenem Compound” (priority 2005, published 2008).
Where two headings read alike, the source gives them in different places.

Columns and labels:
[1] = Storage Stability Test-2 (sealed brown glass bottle, 40° C., purity by HPLC); format: physicochemical; details: HPLC peak area ratio
Protocol: (§1) The crystalline form of the present invention obtained according to Example 2 and Crystalline form 1 were sealed in a brown glass bottle at a constant temperature of 40° C. followed by measurement of purity at the start of the test and one month later using high performance liquid chromatography (column: Develosil RPAQUEOUS 4.6×150 mm, column temperature: 60° C., developer flow rate: 1.0 ml/min, developer: 0.02 M aqueous potassium dihydrogen phosphate solution/acetonitrile=95/5 to 50/50). The resulting purities were represented as the ratios of the areas of the chromatographic peaks.

[2] = Water Solubility Test (time to completely dissolve); format: physicochemical; details: for Dissolving time: 300 mg of crystals sized through 150 μm mesh, 10 ml of water, 25° C., complete dissolution
Excerpt: The crystalline form of the present invention obtained according to Example 2 and a crystalline form described in Japanese Patent Application Publication (Kokai) No. 2001-72681 ((1R,5S,6S)-6-[(1R)-1-hydroxyethyl]-1-methyl-2-[(2S,4S)-2-[(3S)-3-(2-guanidinoacetylamino)pyrrolidin-1-ylcarbonyl]-1-methylpyrrolidin-4-ylthio]-1-carbepen-2-em-3-carboxylic acid, referred to as Crystalline form 2) were sized by passing through a 150 μm mesh filter followed by measurement of the amount of time required for 300 mg of the crystals to completely dissolve in 10 ml of water at 25° C.

[3] = Storage Stability Test-1 (sealed brown glass bottle, 25° C., purity by HPLC); format: physicochemical; details: HPLC peak area ratio
Protocol: as §1, with “and a crystalline form described in Japanese Patent Application Publication (Kokai) No. 2001-72681 ((1R,5S,6S)-6-[(1R)-1-hydroxyethyl]-1-methyl-2-[(2S,4S)-2-[(3S)-3-(2-guanidinoacetylamino)pyrrolidin-1-ylcarbonyl]-1-methylpyrrolidin-4-ylthio]-1-carbepen-2-em-3-carboxylic acid·monoethanolate·trihydrate, referred to as” for “and”, “form 1)” for “form 1”, “of 25°” for “of 40°”, “the test,” for “the test and”, “month later and two months” for “month”

[4] = system: Gram-negative bacteria and Gram-positive bacteria; details: cited from earlier work

| SMILES | Purity 1 month later (%) [1] [%] | Purity at start of test (%) [1] [%] | Dissolving time [2] [min] | solubility in water (in words) ([2]; compared with the known crystalline form) | Purity (%) 1 month later [3] [%] | Purity (%) 2 months later [3] [%] | Purity (%) Start of test [3] [%] | antibacterial activity ([4]; from Patent Documents 1 and 2, listed as formula (I)) | antibacterial activity ([4]; from Patent Documents 1 and 2) |
| --- | --- | --- | --- | --- | --- | --- | --- | --- | --- |
| C[C@@H](O)[C@H]1C(=O)N2C(C(=O)O)=C(S[C@H]3C[C@@H](C(=O)N4CC[C@H](NC(=O)CNC(=N)N)C4)N(C)C3)[C@H](C)[C@H]12 (stereo in doubt) [Crystalline form of present invention, (1R,5S,6S)-6-[(1R)-1-Hydroxyethyl]-1-methyl-2-[(2S,4S)-2-[(3S)-3-(2-guanidinoacetylamino)pyrrolidin-1-ylcarbonyl]-1-methylpyrrolidin-4-ylthio]-1-carbapen-2-em-3-carboxylic acid acetonate] | 98.35 | 98.35 | 2.5 | superior to that of the known crystalline form | 98.43 | 98.40 | 98.35 |  |  |
| CCO.C[C@@H](O)[C@H]1C(=O)N2C(C(=O)O)=C(S[C@H]3C[C@@H](C(=O)N4CC[C@H](NC(=O)CNC(=N)N)C4)N(C)C3)[C@H](C)[C@H]12.O.O.O [Crystalline form 1, (1R,5S,6S)-6-[(1R)-1-hydroxyethyl]-1-methyl-2-[(2S,4S)-2-[(3S)-3-(2-guanidinoacetylamino)pyrrolidin-1-ylcarbonyl]-1-methylpyrrolidin-4-ylthio]-1-carbepen-2-em-3-carboxylic acid·monoethanolate·trihydrate, reference compound] | 98.26 | 98.45 |  |  | 98.35 | 98.06 | 98.45 |  |  |
| C[C@@H](O)[C@H]1C(=O)N2C(C(=O)O)=C(S[C@H]3C[C@@H](C(=O)N4CC[C@H](NC(=O)CNC(=N)N)C4)N(C)C3)[C@H](C)[C@H]12 [Crystalline form 2, (1R,5S,6S)-6-[(1R)-1-hydroxyethyl]-1-methyl-2-[(2S,4S)-2-[(3S)-3-(2-guanidinoacetylamino)pyrrolidin-1-ylcarbonyl]-1-methylpyrrolidin-4-ylthio]-1-carbepen-2-em-3-carboxylic acid, reference compound] |  |  | 8.0 |  |  |  |  |  |  |
| C[C@@H](O)[C@H]1C(=O)N2C(C(=O)O)=C(S[C@H]3C[C@@H](C(=O)N4CC[C@H](NC(=O)CNC(=N)N)C4)N(C)C3)[C@H](C)[C@H]12 [compound (I), (1R,5S,6S)-6-[(1R)-1-hydroxyethyl]-1-methyl-2-[(2S,4S)-2-[(3S)-3-(2-guanidinoacetylamino)pyrrolidin-1-ylcarbonyl]-1-methylpyrrolidin-4-ylthio]-1-carbapen-2-em-3-carboxylic acid] |  |  |  |  |  |  |  | potent antibacterial activity | excellent antibacterial activity |
